Our source for the GI50 and TGI values is PubChem BioAssay (NCI).

Common to all, as to experiment: NCI-60 cell line screen, 48 h
The test system of test [1] is SW-620 colon.
Test [2] deals with LOX IMVI melanoma.
Test [3] has as its system OVCAR-8 ovarian.
In test [4] the test system is RPMI-8226 leukemia.
Test [5] deals with HT29 colon.
The subject of test [6] is KM12 colon.
Test [7] has as its system HCT-116 colon.
The subject of test [8] is COLO 205 colon.
Test [9] has as its system SK-OV-3 ovarian.
The test system of test [10] is SF-268 CNS.

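Method: 48-hour compound exposure of cells in 96-well plates, five concentrations, linear interpolation of endpoints. The concentration for 50% growth inhibition is given as GI50. TGI is the concentration that stops growth completely.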 Some results are limits rather than exact numbers.

In the case of `C[C@]12CC[C@@H]3c4ccc(O)cc4C(O)C[C@H]3[C@@H]1CCC2=O` (some centres undefined), the GI50 in test [1] was greater than 100 µM; in test [2] it was greater than 100 µM; in [3], greater than 100 µM; in test [4], 60.6 µM; in [5], 46.7 µM; in [6] it was greater than 100 µM. For the same compound, the GI50 in test [7], in test [8], in [9] and in test [10] was greater than 100 µM throughout. Further, the TGI in test [1], in test [2], in test [3], in [4], in test [5] and in test [6] was greater than 100 µM each time. In addition, the TGI in test [7], in test [8], in test [9] and in test [10] was greater than 100 µM each time.
In the case of `Cc1nn(-c2ccccc2)c(-c2ccccc2[N+](=O)[O-])c1CC#N`, the TGI in test [2], in test [3], in test [4], in test [6], in test [8] and in test [9] was greater than 100 µM each time. In [10], this compound registered a TGI greater than 100 µM.
Regarding `COc1ccccc1Nc1nc(NNC(=O)Cc2ccccc2)nc(NNC(=O)c2ccncc2)n1`, the TGI in test [1], in [2], in test [3], in test [4], in test [5] and in [6] was greater than 10 µM throughout. The TGI in test [8], in [9] and in [10] was greater than 10 µM each time.
`O=C1NC2(CN3CCC2CC3)C(=O)N1CN(Cc1ccccc1)c1ccccc1` (centres undefined): the TGI in test [1], in test [2], in test [3], in [4], in test [5] and in test [6] was greater than 100 µM throughout. Further, the TGI in [7], in test [8], in [9] and in test [10] was greater than 100 µM each time.
In the case of `Cc1cc(N/N=C/c2nc(-c3ccc(Cl)cc3)oc2C)c2cc(Cl)ccc2n1`, the GI50 is 1.56 µM in test [1]; 2.01 µM in test [2]; 2.05 µM in [3]; 2.07 µM in [4]; 1.97 µM in [5]; 1.97 µM in test [6]. For the same compound, the GI50 is 2.14 µM in test [7], 2.31 µM in test [8], 3.54 µM in test [9] and 3.15 µM in test [10]. The TGI stood at 3.51 µM in [1]; 4.18 µM in [2]; 5.06 µM in test [3]; 5.21 µM in [4]; 4.95 µM in [5]; 4.6 µM in [6]. Further, the TGI in test [7] was determined as 4.59 µM; in [8] it was 6.57 µM; in [9] it was 12.8 µM; in [10], 11.2 µM.
`OC12CC/C(=N/OCc3ccccc3)CC1c1ccccc12` (centres undefined): the TGI in test [2], in test [3], in test [4], in [5], in test [6] and in test [7] was greater than 100 µM throughout. Besides, the TGI in test [8], in test [9] and in test [10] was greater than 100 µM each time.
In the case of `O=[N+]([O-])c1nccn1COCCBr`, the TGI in test [1], in [2], in [3], in test [4], in [5] and in [6] was greater than 100 µM in each case. The TGI in test [7], in test [9] and in test [10] was greater than 100 µM each time.
Take `COc1cc(Br)c(C=Nc2cccc3ccc(OS(=O)(=O)c4cccc([N+](=O)[O-])c4)cc23)cc1OC`: the TGI is greater than 100 µM in [1]; greater than 100 µM in [2]; 86.5 µM in test [3]; greater than 100 µM in test [4]; greater than 100 µM in test [5]; greater than 100 µM in [6]. For the same compound, the TGI in test [7], in test [8], in [9] and in [10] was greater than 100 µM each time.
For the compound `CCOc1c(Cl)cc(CNC(C)C(O)c2ccccc2)cc1OC` (centres undefined), the GI50 is 22.8 µM in test [1]; 17 µM in [2]; 19.8 µM in test [3]; 25.5 µM in test [4]; 18.6 µM in test [5]; 22.5 µM in [6]. The GI50 is 19.2 µM in [7], 19 µM in test [8], 41.1 µM in test [9] and 42.1 µM in [10]. The TGI turned out to be 58.1 µM in test [1]; 30.7 µM in [2]; 48 µM in [3]; 57.7 µM in test [4]; 45.5 µM in test [5]; 49.2 µM in test [6]. In addition, the TGI was 43.1 µM in test [7], 35.9 µM in test [8], greater than 100 µM in [9] and greater than 100 µM in test [10].
Turning to `Cc1c2ccc(N(C)c3ccnc(Nc4cccc(S(N)(=O)=O)c4)n3)cc2nn1C`, the GI50 is 11.7 µM in [1]; 6.86 µM in test [2]; 9.91 µM in [3]; 13.6 µM in [4]; 8.03 µM in test [5]; 8.12 µM in [6]. In addition, the GI50 in test [7] was 8.23 µM; in test [8], 12.5 µM; in test [9] it was 7.03 µM; in [10] it was 8.51 µM. For the same compound, the TGI in test [1], in test [2], in test [3], in [4], in [5] and in [6] was greater than 25 µM in each case. The TGI in [7] was greater than 25 µM; in [8] it was greater than 25 µM; in test [9], 20.6 µM; in [10] it was greater than 25 µM.
